Experimental data: ChEMBL document CHEMBL5584343, “Cerastecin Inhibition of the Lipooligosaccharide Transporter MsbA to Combat Acinetobacter baumannii: From Screening Impurity to In Vivo Efficacy” (J Med Chem, 2024)
Values after ≈ are worked out from the molar mass of the structure shown.

What was measured:
Acinetobacter baumannii [1] = assay: Antibacterial activity against Acinetobacter baumannii ATCC19606 assessed as bacterial growth inhibition incubated for 18 to 20 hrs by microbroth dilution method; assay type: functional; conditions: time 18-20 hrs
[2] = Inhibition of wildtype Acinetobacter baumannii MsbA preincubated for 30 mins followed by ATP addition and measured after 1 hrs by Transcreener ADP2 F1 assay
Acinetobacter baumannii [3] = assay: Antibacterial activity against Acinetobacter baumannii ATCC19606 incubated for 18 to 20 hrs in presence of 1% of human serum by microbroth dilution method; assay type: functional; conditions: time 18-20 hrs
Acinetobacter baumannii [4] = assay: Selectivity ratio of MIC95 for antibacterial activity against Acinetobacter baumannii ATCC19606 in the presence of 1% human serum to MIC95 for antibacterial activity against Acinetobacter baumannii ATCC19606; assay type: functional
[5] = Cytotoxicity against GFP fused human MT4 cells cultured under serum free condition for 24 hrs by CellTiter-Glo assay; assay type: toxicity, cell-based; conditions: GFP fused MT4 cells

Row | SMILES | MIC95 (Acinetobacter baumannii [1]) [µM] | EC50 [2] [nM] | MIC95 (Acinetobacter baumannii [3]) [µM] | Selectivity ratio (Acinetobacter baumannii [4]) | EC50 at 24 h [5] [nM]
1 | CCCCc1ccc(S(=O)(=O)Nc2ccc(NC(=O)CCC(=O)Nc3ccc(NS(=O)(=O)c4ccc(CCCC)cn4)c(C(=O)O)c3)cc2C(=O)O)nc1 | 25 (≈ 19.5 µg/mL) | 1790 | 200 | 8 | 
2 | CCCCc1ccc(S(=O)(=O)Nc2ccc(NC(=O)CCC(=O)Nc3ccc(NS(=O)(=O)c4ccc(CCCC)cc4)c(C(=O)OCC)c3)cc2C(=O)OCC)cc1 | > 200 | > 198000 | > 200 |  | 
3 | CCCCc1ccc(S(=O)(=O)Nc2ccc(NC(=O)CCC(=O)Nc3ccc(NS(C)(=O)=O)c(C(=O)O)c3)cc2C(=O)O)cc1 | 100 (≈ 66.1 µg/mL) | 6400 | 200 | 2 | 
4 | Cc1c(S(=O)(=O)Nc2ccc(NC(=O)CCCOc3ccc(NS(=O)(=O)c4cnn(-c5ccc(Cl)cc5)c4C)c(C(=O)O)c3)cc2C(=O)O)cnn1-c1ccc(Cl)cc1 | 0.098 (≈ 0.0865 µg/mL) | < 10 | 1.56 | 16 | 900
5 | CCCCc1ccc(S(=O)(=O)Nc2ccc(NC(=O)CCC(=O)Nc3ccc(NS(=O)(=O)c4ccc(CCCC)cc4)c(C(=O)O)c3)cc2CC(=O)O)cc1 | 0.196 (≈ 0.155 µg/mL) | 967 | 25 | 128 | 
6 | CCCCc1ccc(S(=O)(=O)Nc2ccc(NC(=O)CCC(=O)Nc3ccc(NS(=O)(=O)c4ccc(Oc5ccccc5)nc4)c(C(=O)O)c3)cc2C(=O)O)cc1 | 0.069 (≈ 0.0563 µg/mL) | 47 | 4.42 | 64 | 
7 | CCCCc1ccc(S(=O)(=O)Nc2ccc(NC(=O)CCC(=O)Nc3ccc(NS(=O)(=O)c4ccc(CCCC)cc4)c(C(=O)O)c3)cc2C#N)cc1 | > 200 | 1600 | > 200 |  | 
8 | CCCCc1ccc(S(=O)(=O)Nc2ccc(NC(=O)CCC(=O)Nc3ccc(N)c(C(=O)O)c3)cc2C(=O)O)cc1 | > 200 | > 66200 | > 200 |  | 
9 | CCCCc1ccc(S(=O)(=O)Nc2ccc(NC(=O)CCC(=O)Nc3ccc(NS(=O)(=O)c4ccc(CCCC)cc4)c(C(=O)O)c3)cc2CO)cc1 | 6.25 (≈ 4.78 µg/mL) | 1240 | > 200 | >32 | 
10 | CCCCc1ccc(S(=O)(=O)Nc2ccc(NC(=O)CCC(=O)Nc3ccc(NS(=O)(=O)c4ccc(CCCC)cc4)c(P(=O)(O)O)c3)cc2C(=O)O)cc1 | 1.56 (≈ 1.27 µg/mL) | 416 | 25 | 16 | 
11 | CCCCc1ccc(S(=O)(=O)Nc2ccc(NC(=O)CCC(=O)Nc3ccc(N(C)S(=O)(=O)c4ccc(CCCC)cc4)c(C(=O)O)c3)cc2C(=O)O)cc1 | 1.11 (≈ 0.877 µg/mL) | 456 | 50 | 45 | 
12 | CCCCc1ccc(S(=O)(=O)Nc2ccc(NC(=O)CCC(=O)Nc3ccc(NS(=O)(=O)c4ccc(CCCC)nc4)c(C(=O)O)c3)cc2C(=O)O)cc1 | 0.196 (≈ 0.153 µg/mL) | 64 | 12.5 | 64 | 
13 | CCCCc1ccc(S(=O)(=O)Nc2ccc(NC(=O)CCCOc3ccc(NS(=O)(=O)c4ccc(CCCC)cc4)c(C(=O)O)c3)cc2C(=O)O)cc1 | 0.069 (≈ 0.0528 µg/mL) | 16 | 6.25 | 91 | 
14 | CCCCc1ccc(NS(=O)(=O)c2ccc(NC(=O)CCC(=O)Nc3ccc(NS(=O)(=O)c4ccc(CCCC)cc4)c(C(=O)O)c3)cc2C(=O)O)cc1 | 0.783 (≈ 0.61 µg/mL) | 597 | 25 | 32 | 
15 | CCCCc1ccc(S(=O)(=O)Nc2ccc(NC(=O)CCC(=O)Nc3ccc(NS(=O)(=O)c4ccc(CCCC)nc4)c(C(=O)O)c3)cc2C(=O)O)cn1 | 2.21 (≈ 1.73 µg/mL) | 82 | 25 | 11 | 
16 | Cn1nc(-c2ccccc2)cc1S(=O)(=O)Nc1ccc(NC(=O)CCCOc2ccc(NS(=O)(=O)c3cc(-c4ccccc4)nn3C)c(C(=O)O)c2)cc1C(=O)O | 0.024 (≈ 0.0195 µg/mL) | 3.8 | 1.11 | 46 | 700
17 | CCCCc1ccc(S(=O)(=O)Nc2ccc(NC(=O)CCC(=O)Nc3ccc(NS(=O)(=O)c4ccc(CCCC)cc4)c(C(N)=O)c3)cc2C(N)=O)cc1 | > 200 | 512 | > 200 |  | 
18 | CCCCc1ccc(S(=O)(=O)Nc2ccc(NC(=O)CCC(=O)Nc3ccc(NS(=O)(=O)c4ccccc4)c(C(=O)O)c3)cc2C(=O)O)cc1 | 0.782 (≈ 0.565 µg/mL) | 311 | 12.5 | 16 | 
19 | CCCCc1ccc(S(=O)(=O)Nc2ccc(OCCCCOc3ccc(NS(=O)(=O)c4ccc(CCCC)cc4)c(C(=O)O)c3)cc2C(=O)O)cc1 | 0.049 (≈ 0.0369 µg/mL) | 5.4 | 12.5 | 255 | 9800
20 | CCCCc1ccc(S(=O)(=O)Nc2ccc(NC(=O)CCC(=O)Nc3ccc(NS(=O)(=O)c4ccc(CCCC)cc4)c(C(=O)NC)c3)cc2C(=O)O)cc1 | > 200 | 765 | > 200 |  | 
